{
  "source": "patent US10450293B2",
  "about": "“Chemokine CXCR4 and CCR5 receptor modulators and uses related thereto” (Emory University, priority 2014, dated 2019)",
  "key": {"HIV-1 IIIB [1]": {"test_system": "HIV-1 IIIB", "experiment": "HIV-1 MAGI assay, IIIB (CXCR4 / T-tropic)", "type": "cell-based", "experimental": "(§1) Bayesian statistical models were constructed using known CXCR4 and CCR5 active compounds from literature, and these models were used to virtually screen 5 million compounds in the Aldrich Marketplace Select library. The screen yielded 14 compounds of interest that were then tested for their anti-HIV activity for both tropisms in MAGI assay. Two compounds (FIG. 1, compounds 1 and 2) were active against both T and M tropic forms of HIV with IC50 values of ˜20 μM. These initial hits were followed-up by a second round of virtual screening based on similarity and sub-structure searching. Another 24 compounds were purchased from the same database and tested. […] This compound was then subjected to a series of biological evaluations to determine activity profile and confirm mechanism of action."}, "HIV-1 Ba-L [2]": {"test_system": "HIV-1 Ba-L", "experiment": "HIV-1 MAGI assay, Ba-L (CCR5 / M-tropic)", "type": "cell-based", "experimental": "as §1"}, "HIV-1 Ba-L [3]": {"test_system": "HIV-1 Ba-L", "experiment": "PBMC anti-HIV-1 assay, Ba-L (CCR5)", "type": "cell-based", "conditions": "Human immunodeficiency virus 1, BAL"}, "HIV-1 IIIB [4]": {"test_system": "HIV-1 IIIB", "experiment": "PBMC anti-HIV-1 assay, IIIB (CXCR4)", "type": "cell-based", "conditions": "Human immunodeficiency virus 1, IIIB, read-out: PBMC - HIV-1HIB (CXCR4) IC50"}, "PBMC toxicity": {"experiment": "PBMC toxicity", "type": "cell-based", "conditions": "read-out: PBMC - Toxicity TC50"}, "CCR5 [5]": {"molecular_target": "T1, CCR5 (Homo sapiens, UniProt P51681)", "T1 construct": "expressed in transfected cells; host or cells: HeLa-C14", "T1 sequence (P51681 whole entry, the tested form may be a part)": "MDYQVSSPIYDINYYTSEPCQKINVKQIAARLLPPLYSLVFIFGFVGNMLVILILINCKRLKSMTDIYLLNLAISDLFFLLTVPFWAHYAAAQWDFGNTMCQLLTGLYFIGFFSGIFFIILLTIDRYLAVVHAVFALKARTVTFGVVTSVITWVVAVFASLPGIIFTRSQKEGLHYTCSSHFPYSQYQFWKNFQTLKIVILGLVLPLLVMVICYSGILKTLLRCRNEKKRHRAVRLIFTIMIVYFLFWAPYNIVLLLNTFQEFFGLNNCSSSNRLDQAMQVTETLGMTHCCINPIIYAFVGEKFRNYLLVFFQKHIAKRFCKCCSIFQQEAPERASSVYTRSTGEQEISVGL", "experiment": "HeLa-C14:JRFL CD4-dependent cell-cell fusion assay", "type": "cell-based", "excerpt": "Cell-cell fusion assays measure specifically co-receptor mediated inhibition of gp120-induced fusion in the absence of other viral machinery, and these assays were used to explore the CCR5- and CXCR4-specific antiviral activity. A cell-cell fusion assay was constructed to simulate HIV-1 entry in the absence of other viral machinery. The assay measured fusion of effector cells expressing the JRFL envelope (CCR5-tropic/CD4 dependent) with HeLa-C14 target cells (expressing CD4, CCR5, and CXCR4) using a luciferase readout (FIG. 5A)."}, "CCR5 [6]": {"molecular_target": "T1, CCR5", "experiment": "125I-MIP-1β displacement radio-ligand competition assay", "type": "binding"}, "[7]": {"test_system": "HIV-2 strain that utilized CXCR4 for entry", "experiment": "PBMC HIV-2 inhibition assay", "type": "cell-based", "excerpt": "Compounds 4 inhibited this HIV-2 strain in PBMC cells in support of the CXCR4-based viral entry inhibition mechanism."}, "VSV-G pseudovirus": {"test_system": "VSV-G pseudovirus", "experiment": "microbe, parasite or virus in culture", "type": "cell-based"}, "[8]": {"molecular_target": "HIV-1 reverse transcriptase (Human immunodeficiency virus type 1 group M subtype B, UniProt P03366)", "experiment": "biochemical", "type": "biochemical"}, "wild type virus": {"test_system": "wild type virus", "experiment": "organism not typed", "type": "cell-based", "conditions": "read-out: Multi-cycle EC50 (WT)"}, "in vitro": {"experiment": "in vitro", "type": "cell-based", "conditions": "human"}, "MAGI toxicity": {"experiment": "MAGI toxicity", "conditions": "human, MAGI cells"}},
  "data": [
    {"compound": "4-((4-(4-benzyl-5-methyl-1H-pyrazol-3-yl)piperidin-1-yl)methyl)-3-chloropyridine", "values": [
      {"measurement": "IC50", "setting": "HIV-1 IIIB [1]; table of synthesized compounds, read-out: X4-IC50", "value": 3100, "unit": "nM"},
      {"measurement": "IC50", "setting": "HIV-1 Ba-L [2]; table of synthesized compounds, read-out: R5-IC50", "value": 4.2, "unit": "µM"},
      {"measurement": "CC50", "setting": "MAGI", "value": 164, "unit": "µM"}
    ]},
    {"compound": "c1ccc(Cc2cn[nH]c2C2CCN(Cc3ccncc3)CC2)cc1", "note": "[Compound 4, 4-((4-(4-benzyl-1H-pyrazol-3-yl)piperidin-1-yl)methyl)pyridine]", "values": [
      {"measurement": "IC50", "setting": "HIV-1 IIIB [1]; Human immunodeficiency virus 1, IIIB, MAGI, Table 3, read-out: MAGI Assay IC50 CXCR4", "value": 800, "unit": "nM"},
      {"measurement": "IC50", "setting": "HIV-1 IIIB [1]; Human immunodeficiency virus 1, IIIB, MAGI, read-out: MAGI - HIV-1HIB (CXCR4) IC50", "value": 800, "unit": "nM"},
      {"measurement": "IC50", "setting": "HIV-1 IIIB [1]; Human immunodeficiency virus 1, IIIB, MAGI, table of synthesized compounds, read-out: X4-IC50", "value": 780, "unit": "nM"},
      {"measurement": "IC50", "setting": "HIV-1 IIIB [1]; Human immunodeficiency virus 1, IIIB, MAGI, value stated for both tropisms, read-out: IC50 against T tropic HIV in MAGI assay", "value": "800 to 3800", "unit": "nM"},
      {"measurement": "IC50", "setting": "HIV-1 IIIB [1]; IIIB, T-tropic, read-out: HIV-1 MAGI IC50 IIIB", "value": 25000, "unit": "nM"},
      {"measurement": "IC50", "setting": "HIV-1 Ba-L [2]; Ba-L, M-tropic, read-out: HIV-1 MAGI IC50 Ba-L", "value": 17, "unit": "µM"},
      {"measurement": "IC50", "setting": "HIV-1 Ba-L [2]; Human immunodeficiency virus 1, BAL, MAGI, value stated for both tropisms, read-out: IC50 against M tropic HIV in MAGI assay", "value": "0.8 to 3.8", "unit": "µM"},
      {"measurement": "IC50", "setting": "HIV-1 Ba-L [2]; Human immunodeficiency virus 1, BAL, Table 3, read-out: MAGI Assay IC50 CCR5", "value": 3.8, "unit": "µM"},
      {"measurement": "IC50", "setting": "HIV-1 Ba-L [2]; Human immunodeficiency virus 1, BAL, read-out: MAGI - HIV-1Ba-L (CCR5) IC50", "value": 3.8, "unit": "µM"},
      {"measurement": "IC50", "setting": "HIV-1 Ba-L [2]; Human immunodeficiency virus 1, BAL, table of synthesized compounds, read-out: R5-IC50", "value": 3.75, "unit": "µM"},
      {"measurement": "IC50", "setting": "HIV-1 Ba-L [3]", "value": 2300, "unit": "nM"},
      {"measurement": "IC50", "setting": "HIV-1 IIIB [4]", "value": 2300, "unit": "nM"},
      {"measurement": "CC50", "setting": "PBMC toxicity", "value": "> 100", "unit": "µM"},
      {"measurement": "IC50", "setting": "CCR5 [5]", "value": 36, "unit": "µM"},
      {"measurement": "inhibition of JRFL envelope / HeLa-C14 cell-cell fusion", "setting": "CCR5 [5]; luciferase readout, in words", "value": "inhibited fusion"},
      {"measurement": "125I-MIP-1β Displacement", "setting": "CCR5 [6]; at 100 μM", "value": 38, "unit": "% at 100 μM/"},
      {"measurement": "125I-MIP-1β Displacement", "setting": "CCR5 [6]; at 1 mM", "value": 88, "unit": "% at 1 mM"},
      {"measurement": "displacement of 125I-MIP1β chemokine ligand from the receptor", "setting": "CCR5 [6]; in words", "value": "displaced"},
      {"measurement": "IC50", "setting": "[7]; Human immunodeficiency virus 2, PBMC", "value": 31, "unit": "µM"},
      {"measurement": "inhibition of HIV-2 strain in PBMC cells", "setting": "[7]; in words", "value": "inhibited"},
      {"measurement": "EC50", "setting": "VSV-G pseudovirus; Pseudovirus", "value": 1300, "unit": "nM"},
      {"measurement": "inhibition of VSV-G pseudovirus", "setting": "VSV-G pseudovirus; in words", "value": "inhibited"},
      {"measurement": "inhibition of isolated HIV-1 reverse transcriptase", "setting": "[8]; in words", "value": "inhibited"},
      {"measurement": "IC50", "setting": "[8]; read-out: Isolated HIV-RT Inhibition IC50", "value": 9, "unit": "µM"},
      {"measurement": "EC50", "setting": "wild type virus", "value": 900, "unit": "nM"},
      {"measurement": "CC50", "setting": "in vitro", "value": "> 200", "unit": "µM"},
      {"measurement": "CC50", "setting": "MAGI toxicity; MAGI -Toxicity TC50", "value": "> 300", "unit": "µM"},
      {"measurement": "CC50", "setting": "MAGI toxicity; TC50, table of synthesized compounds", "value": "> 100", "unit": "µM"}
    ]}
  ]
}
